No end group written: not given here.
Tests used:
[1] = molecular target: T1, porcine pancreatic lipase (PL) (Sus scrofa, UniProt P00591); experiment: In vitro PL inhibition assay (p-nitrophenylbutyrate substrate); format: biochemical; settings: triplicate; for IC50: porcine PL 1 mg/mL in 100 mM Tris HCl, pre-incubation 37 °C 30 min, 5 mM p-nitrophenylbutyrate, absorbance 450 nm, from fitted inhibition curve; for PL inhibition rate: range over concentrations of 0.2–1.0 mg/mL, 37 °C, 30 min pre-incubation
T1 construct: purchased Jiangsu Jingmei Bio technology (Yancheng, China)
T1 sequence (P00591 1-450): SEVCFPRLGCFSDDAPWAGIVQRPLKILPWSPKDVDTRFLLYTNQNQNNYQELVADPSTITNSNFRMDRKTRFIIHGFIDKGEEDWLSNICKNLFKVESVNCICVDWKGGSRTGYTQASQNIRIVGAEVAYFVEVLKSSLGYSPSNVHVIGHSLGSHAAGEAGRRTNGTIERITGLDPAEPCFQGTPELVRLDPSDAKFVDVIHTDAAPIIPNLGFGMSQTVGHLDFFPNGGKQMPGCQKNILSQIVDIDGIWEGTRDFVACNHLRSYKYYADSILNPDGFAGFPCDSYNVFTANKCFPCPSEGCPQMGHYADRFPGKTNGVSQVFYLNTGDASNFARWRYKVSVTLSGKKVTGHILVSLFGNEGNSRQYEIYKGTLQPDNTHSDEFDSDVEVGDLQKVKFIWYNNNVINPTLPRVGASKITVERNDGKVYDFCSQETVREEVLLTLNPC
Experimental: (§1) This experiment, based on the method of Glisan et al. and with slight modifications to the experimental method, determined the effects of peptides RK7 and KQ7 on porcine pancreatic lipase (PL). Firstly, dissolve p-nitrophenylbutyrate (5 mM) in a sodium acetate solution (5 mM, containing 1% Triton X-100). Dissolve porcine pancreatic lipase (PL) (1 mg/mL) in 100 mM Tris HCl buffer. Incubate with different concentrations of porcine pancreatic lipase (PL) and peptides in 96-well plates (37 °C) for 30 min. Then, mix with 5 mM p-nitrophenylbutyrate solution to initiate the enzyme reaction. The labeled pig pancreatic lipase antibody binds to form an antibody–antigen enzyme-labeled antibody complex. The substrate is converted to blue by enzyme catalysis and ultimately to yellow by acid action. The intensity of color is positively correlated with the presence of porcine pancreatic lipase (PL) in the sample. The enzyme-linked immunosorbent assay (ELISA) was used to measure the absorbance (OD value) at a wavelength of 450 nm, and the activity concentration of porcine pancreatic lipase (PL) in the sample was calculated using a standard curve.(1) PL inhibition rate/%=1−A−B/C−D × 100 where A is the absorbance value of the sample; B is the absorbance value of the sample blank; C is the absorbance value of the control group; and D is the absorbance value of the control blank group.
All measured data in the experiment were determined independently and measured in triplicate. All data were processed using SPSS Statistics 26.0. Data plots were generated using Origin 8.5 and GraphPad Prism 8.0.2.

[2] = molecular target: T1, porcine pancreatic lipase (PL); experiment: PL inhibitory activity after simulated gastrointestinal digestion (pepsin, then trypsin); format: biochemical; settings: pepsin pH 2, then trypsin pH 7.5, enzyme–substrate 1:50 w/w, 37 °C
Experimental: as §1, with “group. […]” for “group.”

With `CC(C)c1c(C(=O)Nc2ccccc2)c(-c2ccccc2)c(-c2ccc(F)cc2)n1CC[C@@H](O)C[C@@H](O)CC(=O)O` [atorvastatin, reference compound] the IC50 [1] was 886 µM and the PL inhibition rate [1] was 29.27–67.09%.
For “KVLPVPQ [KQ7, Lys-Val-Leu-Pro-Val-Pro-Gln]”, the IC50 [1] was 760 µM and the “PL inhibition rate at 120 min of simulated gastrointestinal digestion” value ([2]; 120 min time point) was 61.31%.
With “RPKHPIK [RK7, Arg-Pro-Lys-His-Pro-Ile-Lys]” the IC50 [1] was 788 µM, the PL inhibition rate [1] was 19.74–62.32% and the “PL inhibition rate after simulated gastrointestinal digestion (range over digestion)” value ([2]; 120-minute digestion, sampled every 30 min) was 44.34–62.35%.
